For data set [1], the system named is Vibrio alginolyticus. The data set is described as follows: Cytotoxicity of Vibrio alginolyticus. Type of data set: cell-based. The settings on record: CM2660 at different concentrations.
Data set [2] concerns the target T1, HlyU (Vibrio vulnificus, UniProt A0A3Q0L222).
T1 sequence (A0A3Q0L222 1-98): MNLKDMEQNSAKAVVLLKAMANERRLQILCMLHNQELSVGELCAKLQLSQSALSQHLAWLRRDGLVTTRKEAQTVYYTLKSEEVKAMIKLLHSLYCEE
Briefly: Electrophoretic mobility shift assay (EMSA), HlyU binding to rtxA promoter DNA. The procedure: In order to investigate the effect of CM2660 on the DNA-binding capability of the HlyU protein, electrophoretic mobility shift assay (EMSA) experiments were performed using DNA at the known HlyU-binding rtxA promoter site.
The promoter site of the rtxA gene was amplified by PCR using ^32P-labeled primer, PrtxA-R (5′-[…]-3′) and unlabeled primer PrtxA-F (5′-[…]-3′). This DNA probe was reacted with 50 nM or 100 nM HlyU, 100 μM CM2660 or DMSO in reaction buffer (10 mM Tris-Cl, 50 mM KCl, 5 mM MgCl2, 0.75 mM DTT and 5% glycerol, 0.1 μg poly(dl-dC)) at 25° C. for 30 minutes.
The DNA-HlyU complex was electrophoresed on a polyacrylamide gel and phosphoimaged through Typhoon FLA7000 to determine the band position (FIG. 15, FIG. 16).

In data set [3] the test system is exsA, vp1668, vopQ, vopS and vopR. The data set is described as follows: qRT-PCR of exsA and T3SS-1 genes in Vibrio parahaemolyticus. Type of data set: cell-based. The settings on record: 20 μM, DMEM, vs 2% DMSO. An excerpt: In V. parahaemolyticus, HlyU is known to activate the gene expression of the master transcriptional regulator, exsA of type III secretion system-1 (T3SS-1), which causes cytotoxicity. In order to determine whether or not CM2660 reduces the expression of the exsA gene by inhibiting HlyU of V. parahaemolyticus, virulence gene expression of V. parahaemolyticus was investigated using the same method as in (2) of Experimental Example 1.
In order to induce the T3SS-1 gene expression of Vibrio parahaemolyticus, Vibrio parahaemolyticus was cultured in Dulbecco's Modified Eagle Medium (DMEM) medium.
Meanwhile, since ExsA activates the expression of the T3SS-1 gene of Vibrio parahaemolyticus, T3SS-1 gene expression was detected using the same sample to determine whether or not the expression of exsA leads to a decrease in T3SS-1 gene expression (FIG. 24).

Data set [4] has as its system rtxA, vvhA and plpA. Briefly: qRT-PCR of virulence genes activated by HlyU in Vibrio vulnificus. Type of data set: cell-based. The settings on record: 20 μM. How it is done: The effect of CM2660 on the expression of rtxA, vvhA and plpA, the virulence genes of Vibrio vulnificus activated by HlyU, was investigated. […] Then, the culture solution were sampled at the time at which the expression of each gene was mainly controlled by HlyU (A600=0.5 for rtxA and vvhA, and A600=1.0 for plpA), RNA was purified, and quantitative real-time polymerase chain reaction (quantitative Real-Time (qRT)-PCR) was performed (FIGS. 10 to 12).

Data set [5] deals with Vibrio cholerae. The data set is described as follows: Hemolytic activity of Vibrio cholerae supernatant on horse blood agar. The settings on record: 20 μM, 37° C., 24 hours.
Description: Vibrio cholerae supernatant when treated with DMSO was dotted in horse blood agar medium and cultured at 37° C. for 24 hours.
Data set [6] has as its target T1, HlyU. Briefly: Mass spectrometry / X-ray crystallography of HlyU protein treated with CM2660. Type of data set: binding. How it is done:
In order to more accurately identify the HlyU inhibition mechanism of CM2660, the crystal structure of CM2660-treated HlyU protein was detected by X-ray crystallography and compared with that of the HlyU protein not treated with CM2660 (FIG. 17, FIG. 18).
In order to identify this in more detail, samples of HlyU protein treated with CM2660 were analyzed using mass spectrometry.

For data set [7], the system named is Vibrio parahaemolyticus. Briefly: Cytotoxicity of Vibrio parahaemolyticus. Type of data set: cell-based. As to conditions: CM2660 at different concentrations.
Data set [8] concerns the target T1, HlyU. Briefly: Vibrio reporter strain, pKK1305 (PrtxA-lux, activated by HlyU) in wild-type V. vulnificus. Type of data set: cell-based. As to conditions: Compound Group I; HlyU activity (RLU, DMSO = 100%), 30° C. How it is done:
Meanwhile, verification experiments using the Vibrio reporter strain were also conducted so as to exclude false positive results. It was identified that the effect of the compound was not limited only to E. coli using Vibrio vulnificus, each having the reporter plasmid (pZW1608) inhibited by HlyU, which was used for the E. coli reporter strain, and the plasmid (pKK1305) in which the promoter of the rtxA gene activated by HlyU is cloned in front of the bioluminescence operon.
The constructed wild-type Vibrio reporter strain was treated with sample compounds and cultured at 30° C., and cell growth and luminescence were measured in the same manner as the E. coli strain screening (FIG. 3 and FIG. 4).
In order to identify whether or not a specific structure of CM2660 has a significant effect on HlyU inhibition, the effect of HlyU inhibition by the compound CM2660 and derivatives thereof, “Compound Group I” (FIG. 5) was verified. For the purpose, the pKK1305 plasmid prepared in Example 1 was conjugated to the wild-type Vibrio vulnificus, and the Vibrio reporter strain (pKK1305 in wild-type V. vulnificus) thus produced was treated with various concentrations of the derivative compounds.
While culturing at 30° C., the growth of the reporter strain and the degree of bioluminescence thereof were measured in the same manner as in Example 1, and the RLU was calculated. The RLU of the DMSO-treated control group was expressed as 100% HlyU activity. HlyU activity was plotted according to the concentration of the derivative compound, and EC50 (half maximal effective concentration) was calculated using GraphPad Prism 7.0 (GraphPad Software, San Diego, Calif.) (FIG. 6, Table 2).

Data on one molecule can be found in patent publication US11510899B2, “RTX toxin production inhibitor and composition for treating symptom of vibrio infection by using same” (priority 2018, dated 2022).

Regarding `O=C(C#Cc1ccccc1)Nc1scc2c1c(=O)oc1ccccc12` [CM2660, N-(4-oxo-4H-thieno[3,4-c]chromen-3-yl)-3-phenylprop-2-ynamide], in data set [1], the “cytotoxicity of Vibrio alginolyticus” value is “reduced in a concentration-dependent manner”. Also, the “DNA-binding capability of HlyU” value in data set [2] (100 μM compound, 50 nM or 100 nM HlyU, 25° C., 30 minutes) was “significantly decreased”. Moreover, the “DNA-binding capability of HlyU, concentration dependence” value in data set [2] (CM2660 at different concentrations) is on record as “decrease became greater as the concentration of CM2660 increased”. Besides, in data set [3], the “exsA mRNA level” value is recorded as “significantly decreased”, the “vopQ mRNA level” value is reported as “decreased significantly”, the “vopR mRNA level” value is listed as “decreased significantly” and the “vopS mRNA level” value was “decreased significantly”. Moreover, in data set [3], the “vp1668 mRNA level” value was “decreased significantly”. In data set [4] (A600=0.5, vs 2% DMSO), the “rtxA mRNA level” value is reported as “significantly reduced” and the “vvhA mRNA level” value is on record as “significantly reduced”. Further, in data set [4] (A600=1.0, vs 2% DMSO), the “plpA mRNA level” value is “significantly reduced”. Further, the “hemolytic activity of Vibrio cholerae (clear zone)” value in data set [5] is listed as “reduced”. In data set [6], the “covalent binding to cysteine residue at position 30 of HlyU” value is “covalently bound”. Also, the “cytotoxicity of Vibrio parahaemolyticus” value in data set [7] is on record as “decrease in the cytotoxicity”. Also, the EC50 (as a rule, the concentration needed to bring the measured effect to its halfway point) in data set [8] amounted to 30.9 µM.
